Laboratory results published in ChEMBL document CHEMBL1126761, “A novel constrained reduced-amide inhibitor of HIV-1 protease derived from the sequential incorporation of gamma-turn mimetics into a model substrate” (J Med Chem, 1993).
*1 amine or outer side, *2 acyl side, *3 side chain or, on linkers, in order; H or OH if unused. Where a SMILES comes first, the peptide text is derived from it. [ ]: non-standard residue; d: D form. X1 = CC(N[*:1])C1=CCC(=O)N([C@@H](Cc2ccccc2)C(=O)[*:2])CC1; X2 = O=C([C@@H]1CCCN1C[C@H](Cc1ccccc1)N[*:1])[*:2]

What follows are compounds tested against Human immunodeficiency virus type 1 protease (Human immunodeficiency virus 1, UniProt Q72874) (assay: Inhibition constant was determined against HIV-1 protease).

Row | Compound | Ki [µM]
1 | COC(=O)[C@@H](NC(=O)[C@@H](NC(=O)[C@H](C)N1CCC([C@H](C)NC(=O)[C@H](C)N)=CC(Cc2ccccc2)C1=O)C(C)C)C(C)C (stereo in doubt; form 2) | 147
2 | COC(=O)[C@@H](NC(=O)[C@@H](NC(=O)[C@H](C)N1CCC([C@H](C)NC(=O)[C@H](C)N)=CC(Cc2ccccc2)C1)C(C)C)C(C)C (stereo in doubt; form 1) | 0.43
3 | COC(=O)[C@@H](NC(=O)[C@H](C(C)C)N1CCC(C(Cc2ccccc2)NC(=O)[C@H](C)NC(=O)[C@H](C)NC(=O)[C@@H](N)CO)=CCC1=O)C(C)C (stereo in doubt; form 1) | > 2000
4 | COC(=O)[C@@H](NC(=O)[C@H](C(C)C)N1CCC(C(Cc2ccccc2)NC(=O)[C@H](C)NC(=O)[C@H](C)NC(=O)[C@@H](N)CO)=CCC1=O)C(C)C (stereo in doubt; form 2) | 1700
5 | CC(NC(=O)[C@@H](N)CO)C1=CCC(=O)N([C@@H](Cc2ccccc2)C(=O)N2CCC[C@H]2C(=O)N[C@H](C(=O)N[C@H](C(N)=O)C(C)C)C(C)C)CC1 (some centres not stated) (H-S[X1]PVV-NH2) | > 2000
6 | COC(=O)[C@@H](NC(=O)[C@@H](NC(=O)[C@H](C)N1CCC([C@H](C)NC(=O)[C@H](C)N)=CC(Cc2ccccc2)C1=O)C(C)C)C(C)C (stereo in doubt; form 1) | 372
7 | CC(C)[C@H](NC(=O)[C@@H](NC(=O)[C@@H]1CCCN1C[C@H](Cc1ccccc1)NC(=O)[C@H](C)NC(=O)[C@H](C)NC(=O)[C@@H](N)CO)C(C)C)C(N)=O (H-SAA[X2]VV-NH2) | 18.8
